Laboratory results as given in US8227636B2, “Histone deacetylase inhibitor prodrugs” (Merck HDAC Research, LLC, priority 2004, dated 2012).

Tests used:
[1] = target: T1, histone deacetylase, subtype 1 (HDAC1) (Homo sapiens, UniProt Q13547); experiment: HDAC1-Flag assay (in vitro deacetylation assay); assay type: biochemical; details: for inhibition at 10 µM: 10 μM compound, read-out: HDAC1 % INH 10 μM; for inhibition at 100 µM: 100 μM compound, read-out: HDAC1 % INH 100 μM; for IC50: epitope-tagged human HDAC1 complex, substrate at Km, fluorogenic acetylated lysine substrate, read-out: HDAC1 IC50 Ave
T1 construct: Flag; made in house
T1 sequence (Q13547 whole entry): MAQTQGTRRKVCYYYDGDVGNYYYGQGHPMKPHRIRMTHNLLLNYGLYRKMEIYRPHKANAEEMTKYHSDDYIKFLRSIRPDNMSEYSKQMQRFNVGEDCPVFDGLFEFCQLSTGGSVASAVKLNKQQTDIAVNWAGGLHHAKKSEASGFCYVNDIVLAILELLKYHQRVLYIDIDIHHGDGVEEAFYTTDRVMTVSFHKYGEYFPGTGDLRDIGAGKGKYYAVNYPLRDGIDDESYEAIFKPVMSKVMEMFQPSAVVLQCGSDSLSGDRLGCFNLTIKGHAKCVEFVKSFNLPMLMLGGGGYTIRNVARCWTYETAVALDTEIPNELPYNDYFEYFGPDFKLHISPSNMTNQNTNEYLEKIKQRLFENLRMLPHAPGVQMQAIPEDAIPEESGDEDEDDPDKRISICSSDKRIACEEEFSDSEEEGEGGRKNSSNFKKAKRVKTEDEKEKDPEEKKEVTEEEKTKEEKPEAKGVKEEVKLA
Protocol: Novel compounds were tested for their ability to inhibit histone deacetylase, subtype 1 (HDAC1) using an in vitro deacetylation assay. The enzyme source for this assay was an epitope-tagged human HDAC1 complex immuno-purified from stably expressing mammalian cells. The substrate consisted of a commercial product containing an acetylated lysine side chain (BIOMOL Research Laboratories, Inc., Plymouth Meeting, Pa.). Upon deacetylation of the substrate by incubation with the purified HDAC1 complex, a fluorophore is produced that is directly proportional to the level of deacetylation.

[2] = system: murine erythroleukemia cell line SC9; experiment: MTS assay (Cell Titer 96 Aqueous One Solution Cell Proliferation Assay); assay type: cell-based; details: Mus musculus; SC9 cells, 48 hours incubation; unit inferred
Protocol: The novel compounds of the present invention were tested for their ability to inhibit proliferation of the murine erythroleukemia cell line SC9. The MTS assay, also referred to as the Cell Titer 96 Aqueous One Solution Cell Proliferation Assay, is a colorimetric method for determining the number of viable cells in proliferation, cytotoxicity, or chemosensitivity assays. […] Murine erythroleukemia cells (SC-9) were incubated with vehicle or increasing concentrations of compound for 48 hours.

Structure (SMILES)	inhibition at 10 µM [1] [%]	inhibition at 100 µM [1] [%]	IC50 [2] [nM]	IC50 [1] [nM]
COc1ccccc1C(=O)ONC(=O)CCCCCCC(=O)Nc1ccccc1 [XV, Octanedioic acid (2-methoxy-benzoyloxy)-amide phenylamide]	23	48	592	
CC(C)(C)OC(=O)N[C@@H](Cc1ccccc1)C(=O)ONC(=O)CCCCCCC(=O)Nc1ccccc1 [XIX, [1-Benzyl-2-oxo-2-(7-phenylcarbamoyl-heptanoylaminooxy)-ethyl]-carbamic acid tert-butyl ester]	87	96	446	
O=C(CCCCCCC(=O)Nc1ccccc1)NOC(=O)[C@H](Cc1ccccc1)NC(=O)OCc1ccccc1 [XVII, [1-Benzyl-2-oxo-2-(7-phenylcarbamoyl-heptanoylaminooxy)-ethyl]-carbamic acid benzyl ester]	94	99	753	
O=C(CCCCCCC(=O)Nc1ccccc1)NOC(=O)c1cccc2ccccc12 [XI, Octanedioic acid (naphthalene-1-carbonyloxy)-amide phenylamide]	5	5	5220	
O=C(CCCCCCC(=O)Nc1ccccc1)NOC(=O)CCCc1ccccc1 [VI, Octanedioic acid phenylamide(4-phenyl-butyryloxy)-amide]	27	62	1540	
O=C(CCCCCCC(=O)Nc1ccccc1)NOC(=O)[C@@H](Cc1ccccc1)NC(=O)OCc1ccccc1 [XVIII, [1-Benzyl-2-oxo-2-(7-phenylcarbamoyl-heptanoylaminooxy)-ethyl]-carbamic acid benzyl ester]	78	93	443	
O=C(CCCCCCC(=O)Nc1ccccc1)NOC(=O)CCCCCCC(=O)Nc1ccccc1 [I, Octanedioic acid phenylamide(7-phenylcarbamoyl-heptanoyloxy)-amide]	45	79	785 ± 4.9	51900
O=C(CCCCCCC(=O)Nc1ccccc1)NOC(=O)CCc1ccccc1 [V, Octanedioic acid phenylamide(3-phenyl-propionyloxy)-amide]	64	90	491 ± 327	1680 ± 1200
O=C(CCCCCCC(=O)Nc1ccccc1)NOC(=O)c1ccc2ccccc2c1 [X, Octanedioic acid (naphthalene-2-carbonyloxy)-amide phenylamide]	9	22	1790	
COc1cccc(C(=O)ONC(=O)CCCCCCC(=O)Nc2ccccc2)c1 [XII, Octanedioic acid (3-methoxy-benzoyloxy)-amide phenylamide]	20	43	494	
Cc1ccc(C(=O)ONC(=O)CCCCCCC(=O)Nc2ccccc2)cc1 [XIV, Octanedioic acid (4-methyl-benzoyloxy)-amide phenylamide]	38	74	862	
CC(=O)ONC(=O)CCCCCCC(=O)Nc1ccccc1 [II, Octanedioic acid acetoxy-amide phenylamide]	-17	2	246 ± 78.4	
CCCCc1ccc(C(=O)ONC(=O)CCCCCCC(=O)Nc2ccccc2)cc1 [IV, Octanedioic acid (4-butyl-benzoyloxy)-amide phenylamide]	10	50	1760	
O=C(CCCCCCC(=O)Nc1ccccc1)NOC(=O)c1ccc(-c2ccccc2)cc1 [VIII, Octanedioic acid (biphenyl-4-carbonyloxy)-amide phenylamide]	94	99	1380	
O=C(CCCCCCC(=O)Nc1ccccc1)NOC(=O)c1ccc(Cl)cc1 [XVI, Octanedioic acid (4-chloro-benzoyloxy)-amide phenylamide]	24	36	434	
O=C(CCCCCCC(=O)Nc1ccccc1)NOC(=O)c1cccnc1 [III, Octanedioic acid phenylamide(pyridine-3-carbonyloxy)-amide]	87	97	252 ± 56.5	582 ± 312
O=C(CCCCCCC(=O)Nc1ccccc1)NOC(=O)/C=C/c1ccccc1 [VII, Octanedioic acid (3-phenyl-acryloyloxy)-amide phenylamide]	26	45	648	
COc1ccc(C(=O)ONC(=O)CCCCCCC(=O)Nc2ccccc2)cc1 [XIII, Octanedioic acid (4-methoxy-benzoyloxy)-amide phenylamide]	21	65	748	
O=C(CCCCCCC(=O)Nc1ccccc1)NOC(=O)c1ccccc1 [IX, Octanedioic acid benzoyloxy-amide phenylamide]	20	60	1200	
